Source: PubChem BioAssay AID1259407 (Chemical Carcinogenesis Research Information System (CCRIS), 2018)
Active and inactive are the calls of the source. How the calls were made is not given here.

Test system: CCRIS mutagenicity, Ames/micronucleus/aberration tests
Assay: CCRIS mutagenicity studies

Measured: mutagenic call

O=C1NC(=O)C(c2ccccc2)(c2ccccc2)N1
inactive: End Point: IN VITRO CHROMOSOMAL ABERRATIONS, Test System: CHINESE HAMSTER OVARY CELLS, Metabolic Activation: NONE inactive; negative | End Point: IN VITRO CHROMOSOMAL ABERRATIONS, Test System: CHINESE HAMSTER OVARY CELLS, Metabolic Activation: RAT, LIVER, S-9, AROCLOR 1254 inactive; negative | End Point: IN VIVO MICRONUCLEUS, Test System: BONE MARROW POLYCHROMATIC ERYTHROCYTES, Species: MOUSE, Strain/Sex: CD-1/MALE, FEMALE, Route: IP inactive; negative | End Point: IN VIVO MICRONUCLEUS, Test System: FETAL LIVER POLYCHROMATIC ERYTHROCYTES (MALES AND FEMALES), Species: MOUSE, Strain/Sex: FEMALE (PREGNANT), Route: IP inactive; negative | Test System: AMES SALMONELLA TYPHIMURIUM, Strain/Indicator: TA97, Metabolic Activation: NONE, Method: STANDARD PLATE inactive; negative | Test System: AMES SALMONELLA TYPHIMURIUM, Strain/Indicator: TA97, Metabolic Activation: RAT, LIVER, S-9, 3-METHYLCHOLANTHRENE, Method: PREINCUBATION (10, 20 OR 30 MIN) inactive; negative | Test System: AMES SALMONELLA TYPHIMURIUM, Strain/Indicator: TA97, Metabolic Activation: RAT, LIVER, S-9, AROCLOR 1254 (50 OR 100 UG), Method: STANDARD PLATE inactive; negative | Test System: AMES SALMONELLA TYPHIMURIUM, Strain/Indicator: TA97, Metabolic Activation: RAT, LIVER, S-9, AROCLOR 1254, Method: PREINCUBATION (10, 20 OR 30 MIN) inactive; negative | Test System: AMES SALMONELLA TYPHIMURIUM, Strain/Indicator: TA97, Metabolic Activation: RAT, LIVER, S-9, AROCLOR 1254, Method: STANDARD PLATE inactive; negative | Test System: AMES SALMONELLA TYPHIMURIUM, Strain/Indicator: TA97, Metabolic Activation: RAT, LIVER, S-9, PHENOBARBITONE, Method: PREINCUBATION (10, 20 OR 30 MIN) inactive; negative | Test System: AMES SALMONELLA TYPHIMURIUM, Strain/Indicator: TA98, Metabolic Activation: HAMSTER, LIVER, S-9, AROCLOR 1254 (10%), Method: PREINCUBATION inactive; negative | Test System: AMES SALMONELLA TYPHIMURIUM, Strain/Indicator: TA98, Metabolic Activation: NONE, Method: PREINCUBATION inactive; negative | Test System: AMES SALMONELLA TYPHIMURIUM, Strain/Indicator: TA98, Metabolic Activation: NONE, Method: STANDARD PLATE inactive; negative | Test System: AMES SALMONELLA TYPHIMURIUM, Strain/Indicator: TA98, Metabolic Activation: RAT, LIVER, S-9, 3-METHYLCHOLANTHRENE, Method: STANDARD PLATE inactive; negative | Test System: AMES SALMONELLA TYPHIMURIUM, Strain/Indicator: TA98, Metabolic Activation: RAT, LIVER, S-9, AROCLOR 1254 (10%), Method: PREINCUBATION inactive; negative | Test System: AMES SALMONELLA TYPHIMURIUM, Strain/Indicator: TA98, Metabolic Activation: RAT, LIVER, S-9, AROCLOR 1254 (50 OR 100 UG), Method: STANDARD PLATE inactive; negative | Test System: AMES SALMONELLA TYPHIMURIUM, Strain/Indicator: TA98, Metabolic Activation: RAT, LIVER, S-9, AROCLOR 1254, Method: PREINCUBATION (10, 20 OR 30 MIN) inactive; negative | Test System: AMES SALMONELLA TYPHIMURIUM, Strain/Indicator: TA98, Metabolic Activation: RAT, LIVER, S-9, AROCLOR 1254, Method: STANDARD PLATE inactive; negative | Test System: AMES SALMONELLA TYPHIMURIUM, Strain/Indicator: TA98, Metabolic Activation: RAT, LIVER, S-9, PHENOBARBITONE, Method: STANDARD PLATE inactive; negative | Test System: AMES SALMONELLA TYPHIMURIUM, Strain/Indicator: TA100, Metabolic Activation: HAMSTER, LIVER, S-9, AROCLOR 1254 (10%), Method: PREINCUBATION inactive; negative | Test System: AMES SALMONELLA TYPHIMURIUM, Strain/Indicator: TA100, Metabolic Activation: NONE, Method: PREINCUBATION inactive; negative | Test System: AMES SALMONELLA TYPHIMURIUM, Strain/Indicator: TA100, Metabolic Activation: NONE, Method: STANDARD PLATE inactive; negative | Test System: AMES SALMONELLA TYPHIMURIUM, Strain/Indicator: TA100, Metabolic Activation: RAT, LIVER, S-9, AROCLOR 1254 (10%), Method: PREINCUBATION inactive; negative | Test System: AMES SALMONELLA TYPHIMURIUM, Strain/Indicator: TA100, Metabolic Activation: RAT, LIVER, S-9, AROCLOR 1254 (50 OR 100 UG), Method: STANDARD PLATE inactive; negative | Test System: AMES SALMONELLA TYPHIMURIUM, Strain/Indicator: TA100, Metabolic Activation: RAT, LIVER, S-9, AROCLOR 1254, Method: STANDARD PLATE inactive; negative | Test System: AMES SALMONELLA TYPHIMURIUM, Strain/Indicator: TA1530, Metabolic Activation: NONE, Method: STANDARD PLATE inactive; negative | Test System: AMES SALMONELLA TYPHIMURIUM, Strain/Indicator: TA1530, Metabolic Activation: RAT, LIVER, S-9, AROCLOR 1254 (50 OR 100 UG), Method: STANDARD PLATE inactive; negative | Test System: AMES SALMONELLA TYPHIMURIUM, Strain/Indicator: TA1535, Metabolic Activation: HAMSTER, LIVER, S-9, AROCLOR 1254 (10%), Method: PREINCUBATION inactive; negative | Test System: AMES SALMONELLA TYPHIMURIUM, Strain/Indicator: TA1535, Metabolic Activation: NONE, Method: PREINCUBATION inactive; negative | Test System: AMES SALMONELLA TYPHIMURIUM, Strain/Indicator: TA1535, Metabolic Activation: RAT, LIVER, S-9, AROCLOR 1254 (10%), Method: PREINCUBATION inactive; negative | Test System: AMES SALMONELLA TYPHIMURIUM, Strain/Indicator: TA1537, Metabolic Activation: HAMSTER, LIVER, S-9, AROCLOR 1254 (10%), Method: PREINCUBATION inactive; negative | Test System: AMES SALMONELLA TYPHIMURIUM, Strain/Indicator: TA1537, Metabolic Activation: NONE, Method: PREINCUBATION inactive; negative | Test System: AMES SALMONELLA TYPHIMURIUM, Strain/Indicator: TA1537, Metabolic Activation: NONE, Method: STANDARD PLATE inactive; negative | Test System: AMES SALMONELLA TYPHIMURIUM, Strain/Indicator: TA1537, Metabolic Activation: RAT, LIVER, S-9, AROCLOR 1254 (10%), Method: PREINCUBATION inactive; negative | Test System: AMES SALMONELLA TYPHIMURIUM, Strain/Indicator: TA1537, Metabolic Activation: RAT, LIVER, S-9, AROCLOR 1254 (50 OR 100 UG), Method: STANDARD PLATE inactive; negative | Test System: AMES SALMONELLA TYPHIMURIUM, Strain/Indicator: TA1538, Metabolic Activation: NONE, Method: STANDARD PLATE inactive; negative | Test System: AMES SALMONELLA TYPHIMURIUM, Strain/Indicator: TA1538, Metabolic Activation: RAT, LIVER, S-9, 3-METHYLCHOLANTHRENE, Method: STANDARD PLATE inactive; negative | Test System: AMES SALMONELLA TYPHIMURIUM, Strain/Indicator: TA1538, Metabolic Activation: RAT, LIVER, S-9, AROCLOR 1254 (50 OR 100 UG), Method: STANDARD PLATE inactive; negative | Test System: AMES SALMONELLA TYPHIMURIUM, Strain/Indicator: TA1538, Metabolic Activation: RAT, LIVER, S-9, AROCLOR 1254, Method: PREINCUBATION (10, 20 OR 30 MIN) inactive; negative | Test System: AMES SALMONELLA TYPHIMURIUM, Strain/Indicator: TA1538, Metabolic Activation: RAT, LIVER, S-9, AROCLOR 1254, Method: STANDARD PLATE inactive; negative | Test System: AMES SALMONELLA TYPHIMURIUM, Strain/Indicator: TA1538, Metabolic Activation: RAT, LIVER, S-9, PHENOBARBITONE, Method: STANDARD PLATE inactive; negative | Test System: CHINESE HAMSTER OVARY, Strain/Indicator: CHO-K1-BH4 (HGPRT)/6-THIOGUANINE, Metabolic Activation: NONE, Method: SUSPENSION/PLATE inactive; negative | Test System: CHINESE HAMSTER OVARY, Strain/Indicator: CHO-K1-BH4 (HGPRT)/6-THIOGUANINE, Metabolic Activation: S-9, Method: SUSPENSION/PLATE inactive; negative | Test System: MOUSE LYMPHOMA, Strain/Indicator: L5178Y (TK+/TK-), Metabolic Activation: NONE, Method: SUSPENSION/PLATE inactive; negative | Test System: MOUSE LYMPHOMA, Strain/Indicator: L5178Y (TK+/TK-), Metabolic Activation: RAT, LIVER, S-9, AROCLOR 1254, Method: SUSPENSION/PLATE inactive; negative | Test System: MOUSE LYMPHOMA, Strain/Indicator: L5178Y (TK+/TK-), Metabolic Activation: S-9, Method: SUSPENSION/PLATE inactive; negative
